From patent publication US20250163057A1, “DCN-1 MODULATING COMPOUNDS AND METHODS OF USE THEREOF” (Cellarity, Inc., priority 2023, published 2025) come the findings set out here.

Read-outs that look alike come from different tables or passages of the source. Bounds are passed on as bounds.

One experiment deals with DCN1 protein (Homo sapiens (Human), UniProt Q96GG9). Briefly: Intact Protein MS Analysis with the RapidFire-TOF System (covalent adduct formation). The conditions noted are these: MS Emax; 400 nM DCN1, 3 hours at room temperature. It counts as binding. Put shortly: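 Tag-cleaved human DCN1 (400 nM) expressed in E. coli, in 25 mM Tris-HCl, 200 mM NaCl, 1 mM DTT, was incubated with 11 compound concentrations for 3 h at room temperature and quenched with 0.2% formic acid. Intact-protein Q-TOF MS with deconvolution detected the compound adduct mass.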
Sequence of DCN1 protein (Q96GG9 whole entry): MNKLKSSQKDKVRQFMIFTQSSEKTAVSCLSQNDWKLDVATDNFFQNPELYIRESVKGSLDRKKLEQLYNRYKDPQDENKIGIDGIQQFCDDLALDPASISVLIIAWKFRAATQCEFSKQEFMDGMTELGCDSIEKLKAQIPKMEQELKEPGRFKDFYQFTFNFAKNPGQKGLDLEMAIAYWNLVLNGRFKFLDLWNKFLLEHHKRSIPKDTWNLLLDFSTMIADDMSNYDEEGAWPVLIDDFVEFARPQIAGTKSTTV

The subject of experiment [1] is fetal hemoglobin gene HBG1. Briefly: HBG1 Nanostring Assay in CD34+ HSPC erythroid differentiation culture. It counts as cell-based, human. Particulars: for EC50: Homo sapiens, 240 h, HBG1 induction, Day10 of erythroid differentiation; for Nanostring Ymax obs (%): relative to a control compound (C1). As to the method: A Nanostring Assay was performed to evaluate the ability of the compounds to induce expression of the fetal hemoglobin gene HBG1 in cells. The data are shown as EC50, with stronger inducers having a lower EC50 value and higher YMax.
Forty eight hours later (day −2), the cells were passaged at a density of 200,000 cells/ml (100 ul/well in 96well culture plate) in complete expantion media. The cells were plated at 200,000 cells/ml on day 0 and day 3, 400,000 cells/ml on day 5 in phase 1 erythroid differentiation containing StemSpan with 2.5 U/mL of EPO (R&D systems, 287-TC-500), 0.5 mg/mL of Holo-Transferrin (Sigma, T0665-500MG), 1× Glutamine (Gluta-Max) (Gibco, 35050-061), 5 μL/mL Lipid Mixture (Sigma, L0288-100ML), 50 ng/mL SCF (R&D Systems, 255-SV-050), 10 ng/mL IL-3 (R&D Systems, 203-IL010) and 10 ng/mL Insulin (Sigma, I9278-5ML) all 200 μl per well in 96 well culture plate. Cells were then passaged at 500,000 cells/ml and 200 μl per well on day 7 in phase 2 Erythroid differentiation (Phase 1 erythroid differentiation removing IL-3) until collection day (Day10). The culture conditions were used for both control DMSO as well as experimental treatments.
For all cell pasagings, cells were centrifuged at 300 g for 8 minutes at room temperature and cell number were normalized by MANTIS and Integra VIAFLO 384. All the compounds are diluted in DMSO and added to complete media by Formulatrix FAST and mixed starting from day −2. Cells were counted by Luna cell counter with AOPI Staining Solution (Nexcelom Bioscience, CS2-0106-25 mL) on day-2. Cells were counted by BD FACSCelesta Flow Cytometer with CountBright™ Plus Absolute Counting Beads (Thermal Fisher Scientific, C36995) and SYTOX AADvanced™ Ready Flow™ Reagent (Invitrogen, R37173) for other passages. Cells were cultured at 37° C. and 5% CO2. DMSO concentration was kept at 0.1% to minimize any effects to the cells by the vehicle. […] Compound plates were kept at room temperature to protect from light to avoid multiple freeze and thaw cycle.
On the collection day (Day10), 100K cells were collected and stored at −80° C. For direct hybridization for Nanostring, 100K cell pellet was lyzed in 25 μL of RLT (QIAGEN, 79216) with 1×β-Mercaptoethanol (Gibco, 21985-023) and shaked at 300-500 RPM for 5 minutes at room temperature. Cell lysate was stored in −80° C. after lysis.
All hybridizations were done in a total volume of 15 μL (3 μL of RNA lysate added to master mix of 12 μL probe A/B, capture probe/reporter probes, proteinase K and attenuation oligos suspended in hybridization buffer). Samples were hybridized at 67° C. for 22 hr. Following hybridization, the tripartide complexes were purified, immobilized by nCounter Prep Station and imaged by Digital Analyzer (nCounter MAX/FLEX Analysis System), to generate digital counts of barcodes corresponding to each target in the multiplexed reaction. Labeled barcodes obtained from unamplified extracts were counted at 555 images or field of view (FOV). The barcode counts for each sample were recorded in Reporter Code Count (RCC) files that are imported into nSolver analysis software (provided with CodeSet by NS) for quality control evaluation.
The quality control (QC) metric included limit of detection QC by checking for wells with less than 100 total counts for positive controls.
Hybridization signals were normalized against the ERCC positive controls and CodeSet Content (housekeeping gene). Briefly, this involved first calculating a sample-specific scaling factor by calculating arithmetic mean of geomeans of all ERCC positive controls with counts more than zero in all samples. Then this arithmetic mean was divided by the geometric mean of each lane to generate a lane-specific normalization factor. All negative controls and target-specific signal values were then normalized by multiplying counts values with their sample-specific scaling factor. The acceptable range for scaling factors is 0.3-3.0. […]

Experiment [2] deals with DCN1 (DCUND1) protein PONY domain (Homo sapiens (Human), UniProt Q96GG9). Description: TR-FRET assay, DCN1 binding with FAM-labeled probe. An outline of the steps: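 First, the E. coli-derived PONY domain was biotinylated and paired with streptavidin Tb cryptate. Compounds in 0.1% DMSO were then added to DCN1 and FAM-probe (5 nM/20 nM, or 0.31 nM/900 nM total with 800 nM unlabelled) in TritonX, 200 mM NaCl buffer. Finally, TR-FRET ratios were recorded at 1, 5 and 24 hrs.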
Sequence of DCN1 (DCUND1) protein PONY domain (Q96GG9 60-248): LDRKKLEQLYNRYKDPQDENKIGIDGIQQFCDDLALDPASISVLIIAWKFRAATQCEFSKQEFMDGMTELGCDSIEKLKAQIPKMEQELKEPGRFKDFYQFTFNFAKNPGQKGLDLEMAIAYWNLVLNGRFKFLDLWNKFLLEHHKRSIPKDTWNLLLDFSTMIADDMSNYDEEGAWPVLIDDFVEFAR
A general note: In TR-FRET formats the signal depends on donor and acceptor labels being close together.

For experiment [3], the system named is Cullin-3 (CUL3) neddylation. Description: AlphaLISA assay for Cullin-3 (CUL3) neddylation in TF 1 cells. It counts as cell-based. Particulars: Homo sapiens, TF-1, 3 h, 3 hours treatment. An outline of the steps: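 TF 1 cells in unsupplemented IMDM treated with compound concentrations for 3 h, then lysed. CUL3 neddylation detected by AlphaLISA (biotinylated anti-NEDD8, anti-CUL3 acceptor beads overnight, streptavidin donor beads 1 h); normalized to vehicle (0%) and 1 μM DI-1548 (100%), IC50 from Hill fits.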
For orientation: Alpha assays give light when donor and acceptor beads are brought close together.

Where [4] appears, read: 24 hr after treatment with compound, read-out: TR FRET IC50 24 hr.
[5] abbreviates: read-out: TR FRET IC50 1 hr, 1 hr after treatment with compound.
[6] abbreviates: TR FRET IC50 1 hr (nM), 1 hr after treatment with compound.

`CCN1C(=O)[C@@H](NC(=O)c2cccc(C(F)(F)F)c2)[C@@H](c2ccc(F)cc2)c2c(C(=O)N3CC[C@@H](C#N)C3)nn(-c3ccccc3)c21` (mixture of isomers) [Compound I-60]: at DCN1 protein, the “% Adduct Formation” value was “+ (MS Emax % adduct formation greater than or equal to 0.0 and less than or equal to 30.0)”. For the same compound, in experiment [1], the EC50 was over 1000 nM; the “Nanostring Ymax obs (%)” value was “++ (Nanostring Ymax greater than 50.0 and less than or equal to 100.0)”. For the same compound, in experiment [2] (setting [4]), the half-maximal inhibitory concentration (IC50) was 200 to 1000 nM. The IC50 in experiment [2] (setting [5]) was at most 200 nM.
Take `C=C(CN1CCC(F)(F)C1)C(=O)NCc1nn(-c2ccccc2)c2c1[C@H](c1ccc(F)cc1)[C@H](NC(=O)c1cccc(C(F)(F)F)c1)C(=O)N2CC` (racemic) [Compound I-72]: the “% Adduct Formation” value on DCN1 protein is “+ (MS Emax % adduct formation greater than or equal to 0.0 and less than or equal to 30.0)”. For the same compound, in experiment [1], the half-maximal effective concentration (EC50) lay in the range of 100 to 1000 nM; the “Nanostring Ymax obs (%)” value was “++ (Nanostring Ymax greater than 50.0 and less than or equal to 100.0)”. Besides, the half-inhibitory concentration (IC50) in experiment [2] (setting [4]) was in the range of 200 to 1000 nM. Besides, in experiment [2] (setting [6]), the IC50 was 200 to 1000 nM.
`CCN1C(=O)[C@@H](NC(=O)c2cccc(C(F)(F)F)c2)[C@@H](c2ccc(F)cc2)c2c(CNC(=O)C3=C(C(=O)OC)CC3)nn(-c3ccccc3)c21` [Compound I-119]: at DCN1 protein, the “% Adduct Formation” value is “+ (MS Emax % adduct formation greater than or equal to 0.0 and less than or equal to 30.0)”. The compound further displayed a 50% effective concentration (EC50) in experiment [1] of 100 to 1000 nM. Moreover, the “Nanostring Ymax obs (%)” value in experiment [1] was “++ (Nanostring Ymax greater than 50.0 and less than or equal to 100.0)”. For the same compound, the IC50 in experiment [2] (setting [4]) and in experiment [2] (setting [6]) was 200 to 1000 nM throughout.
Take `CCN1C(=O)[C@@H](NC(=O)c2cccc(C(F)(F)F)c2)[C@@H](c2ccc(F)cc2)c2c(CNC/C=C/C(=O)OC)nn(-c3ccccc3)c21` (racemic) [Compound I-127, rac-methyl I-4-((((4R,5R)-7-ethyl-4-(4-fluorophenyl)-6-oxo-1-phenyl-5-(3-(trifluoromethyl)benzamido)-4,5,6,7-tetrahydro-1H-pyrazolo[3,4-b]pyridine-3-yl)methyl)amino)but-2-enoate]: the IC50 in experiment [3] was at most 100 nM; in experiment [2] (setting [4]), at most 200 nM; in experiment [2] (setting [6]) it was at most 200 nM. For the same compound, the EC50 in experiment [1] was 100 to 1000 nM. For the same compound, in experiment [1], the “Nanostring Ymax obs (%)” value is “++ (Nanostring Ymax greater than 50.0 and less than or equal to 100.0)”.
Turning to `C=C(CN1CC(O)C1)C(=O)NCc1nn(-c2ccccc2)c2c1[C@H](c1ccc(F)cc1)[C@H](NC(=O)c1cccc(C(F)(F)F)c1)C(=O)N2CC` [Compound I-459], the IC50 in experiment [3] is at most 100 nM; in experiment [2] (setting [4]), at most 200 nM; in experiment [2] (setting [5]), at most 200 nM. In experiment [1], this compound yielded a 50% effective concentration (EC50) of at most 100 nM. For the same compound, the “Nanostring Ymax obs (%)” value in experiment [1] is “++ (Nanostring Ymax greater than 50.0 and less than or equal to 100.0)”.
In the case of `C=C(CN1CC(C)(O)C1)C(=O)NCc1nn(-c2ccccc2)c2c1[C@H](c1ccc(F)cc1)[C@H](NC(=O)c1cccc(C(F)(F)F)c1)C(=O)N2CC` [Compound I-643], the IC50 is at most 100 nM in experiment [3], at most 200 nM in experiment [2] (setting [4]) and at most 200 nM in experiment [2] (setting [5]). The EC50 in experiment [1] is at most 100 nM. For the same compound, the “Nanostring Ymax obs (%)” value in experiment [1] is “++ (Nanostring Ymax greater than 50.0 and less than or equal to 100.0)”.
With `C=C(CN1CCN(C2COC2)CC1)C(=O)NCc1nn(-c2ccccc2)c2c1[C@@H](c1ccc(F)cc1)[C@H](NC(=O)c1cccc(C(F)(F)F)c1)C(=O)N2CC` (racemic) [Compound I-40], the IC50 in experiment [3] was at most 100 nM; in experiment [2] (setting [4]) it was at most 200 nM; in experiment [2] (setting [5]), at most 200 nM. Besides, the “Nanostring Ymax obs (%)” value in experiment [1] is “++ (Nanostring Ymax greater than 50.0 and less than or equal to 100.0)”.
As for `CCN1C(=O)[C@@H](NC(=O)c2cccc(C(F)(F)F)c2)[C@@H](c2ccc(F)cc2)c2c(C(=O)N[C@@H](C)C#N)nn(-c3ccccc3)c21` [Compound I-254, (4S,5S)—N—((S)-1-cyanoethyl)-7-ethyl-4-(4-fluorophenyl)-6-oxo-1-phenyl-5-(3-(trifluoromethyl)benzamido)-4,5,6,7-tetrahydro-1H-pyrazolo[3,4-b]pyridine-3-carboxamide], the half-inhibitory concentration (IC50) was at most 100 nM in experiment [3], at most 200 nM in experiment [2] (setting [4]) and 200 to 1000 nM in experiment [2] (setting [6]). In addition, the 50% effective concentration (EC50) in experiment [1] is over 1000 nM. Moreover, the “Nanostring Ymax obs (%)” value in experiment [1] was “++ (Nanostring Ymax greater than 50.0 and less than or equal to 100.0)”.
Regarding `C=C(CN1CC2(CCOC2)C1)C(=O)NCc1nn(-c2ccccc2)c2c1[C@H](c1ccc(F)cc1)[C@H](NC(=O)c1cccc(C(F)(F)F)c1)C(=O)N2CC` [Compound I-677], the results for the IC50 in experiment [3], in experiment [2] (setting [4]) and in experiment [2] (setting [5]) were at most 100 nM, at most 200 nM and at most 200 nM, respectively. Besides, in experiment [1], the “Nanostring Ymax obs (%)” value is reported as “+++ (Nanostring Ymax greater than 100.0)”.
For the compound `CCN1C(=O)[C@@H](NC(=O)c2cccc(C(F)(F)F)c2)[C@@H](c2ccc(F)cc2)c2c([C@@H](CCCO)NC#N)nn(-c3ccccc3)c21` [Compound I-399], the figures for the half-inhibitory concentration (IC50) in experiment [3], in experiment [2] (setting [4]) and in experiment [2] (setting [5]) were at most 100 nM, at most 200 nM and at most 200 nM, respectively. The EC50 in experiment [1] was in the range of 100 to 1000 nM. Also, the “Nanostring Ymax obs (%)” value in experiment [1] was “++ (Nanostring Ymax greater than 50.0 and less than or equal to 100.0)”.
Regarding `C=C(CN(C)C1COC1)C(=O)NCc1nn(-c2ccccc2)c2c1[C@H](c1ccc(F)cc1)[C@H](NC(=O)c1cccc(C(F)(F)F)c1)C(=O)N2CC` (racemic) [Compound I-102], the values for the IC50 in experiment [3], in experiment [2] (setting [4]) and in experiment [2] (setting [5]) were at most 100 nM, at most 200 nM and at most 200 nM, respectively. For the same compound, the “Nanostring Ymax obs (%)” value in experiment [1] is “++ (Nanostring Ymax greater than 50.0 and less than or equal to 100.0)”.
With `CCN1C(=O)[C@H](NC(=O)c2cccc(C(F)(F)F)c2)[C@@H](c2ccc(F)cc2)c2c([C@@H](C)NC#N)nn(-c3ccccc3)c21` [Compound I-637], the IC50 in experiment [3] is over 1000 nM; in experiment [2] (setting [4]) it was 200 to 1000 nM; in experiment [2] (setting [6]), 1000 to 3000 nM. Further, the “Nanostring Ymax obs (%)” value in experiment [1] was “+ (Nanostring Ymax greater than or equal to 0.0 and less than or equal to 50.0)”.

The EC50 is the concentration needed to bring the measured effect to its halfway point. Low readings indicate higher potency in that assay, high ones lower potency in that assay. As usually defined, the IC50 is the point on the concentration scale where inhibition reaches its midpoint.
